Laboratory results from patent US8529949B2, “Pharmaceutical tablets of crystalline type II aripiprazole” (Synthon BV, priority 2005, dated 2013).
Where two headings read alike, the source gives them in different places.

Legend:
[1] = cited from earlier work
[2] = Hygroscopicity (water uptake) of crystalline aripiprazole forms; type: physicochemical; details: small particle population (d90 8-50 microns), unmilled

Structure (SMILES): O=C1CCc2ccc(OCCCCN3CCN(c4cccc(Cl)c4Cl)CC3)cc2N1 [Anhydrous Form B, 7-[4-[4-(2,3-dichlorophenyl)-1-piperazinyl]butoxy]-3,4-dihydrocarbostyril]
- water uptake (hygroscopicity) ([1]; in 24 hours, per WO 03/26659): less than 0.4%

Structure (SMILES): O=C1CCc2ccc(OCCCCN3CCN(c4cccc(Cl)c4Cl)CC3)cc2N1 [Type I aripiprazole, 7-[4-[4-(2,3-dichlorophenyl)-1-piperazinyl]butoxy]-3,4-dihydrocarbostyril]
- hygroscopicity ([1]; as taught by WO 03/26659): significantly hygroscopic

Structure (SMILES): O=C1CCc2ccc(OCCCCN3CCN(c4cccc(Cl)c4Cl)CC3)cc2N1 [aripiprazole Type II, 7-[4-[4-(2,3-dichlorophenyl)-1-piperazinyl]butoxy]-3,4-dihydrocarbostyril]
- hygroscopicity [2]: not significantly hygroscopic and/or is non-hygroscopic
